experiment: Pharmacokinetic test of compound in SD rat; format: in vivo; conditions: SD rats, intragastric administration (IG), cassette dosing
Experimental: Example 28: Pharmacokinetic Test of Compound in SD Rat
The animal species used in this experiment were SD rats. There were 3 animals per group. The rats were dosed in cassette format, i.e., multiple (1-6) different compounds were dosed simultaneously to the same group of the SD rats. The vehicle used for the drug was 5% DMSO+5% Solutl+90% ([…] methylcellulose M450), and the administration route was intragastric administration (IG).

AUC_D [kg·ng·h/mL/mg] | Compound
360.90 | CNC(=O)[C@H]1O[C@@H](n2cnc3c(NCc4cccc(OC)c4)nc(-c4cncc(Cl)c4)nc32)[C@H](O)[C@@H]1O (stereo in doubt) [compound 213, (2S,3S,4R,5S)-5-(2-(5-chloropyridin-3-yl)-6-((3-methoxybenzyl)amino)-9/-purin-9-yl)-3,4-dihydroxyl-N-methyltetrahydrofuran-2-carboxamide]
343.50 | [2H]C([2H])([2H])NC(=O)[C@H]1O[C@@H](n2cnc3c(NCc4cccc(I)c4)ncnc32)[C@H](O)[C@@H]1O [compound 1, (2S,3S,4R,5R)-5-(6-(3-iodobenzylamino)-9H-purin-9-yl)-3,4-dihydroxyl-N-(methyl-d3)-tetrahydrofuran-2-formamide]
152.40 | CONC(=O)[C@H]1O[C@@H](n2cnc3c(NCc4cccc(I)c4)ncnc32)[C@H](O)[C@@H]1O [compound 3, (2S,3S,4R,5R)-5-(6-(3-iodobenzylamino)-9H-purin-9-yl)-3,4-dihydroxyl-N-methoxy-tetrahydrofuran-2-formamide]
146.00 | [2H]C([2H])([2H])NC(=O)[C@H]1O[C@@H](n2cnc3c(NCc4ccccc4)nc(-c4cccnc4)nc32)[C@H](O)[C@@H]1O [compound 10, (2S,3S,4R,5R)-5-(6-(benzylamino)-2-(pyridin-3-yl)-9H-purin-9-yl)-3,4-dihydroxyl-N-(methyl-d3)-tetrahydrofuran-2-formamide]
174.00 | [2H]C([2H])([2H])NC(=O)[C@H]1O[C@@H](n2cnc3c(NCc4ccccc4)nc(-c4ccoc4)nc32)[C@H](O)[C@@H]1O [compound 11, (2S,3S,4R,5R)-5-(6-(benzylamino)-2-(furan-3-yl)-9H-purin-9-yl)-3,4-dihydroxyl-N-(methyl-d3)-tetrahydrofuran-2-formamide]
79.00 | [2H]C([2H])([2H])NC(=O)[C@H]1O[C@@H](n2cnc3c(NCc4ccccc4)nc(-c4ccco4)nc32)[C@H](O)[C@@H]1O [compound 12, (2S,3S,4R,5R)-5-(6-(benzylamino)-2-(furan-2-yl)-9H-purin-9-yl)-3,4-dihydroxyl-N-(methyl-d3)-tetrahydrofuran-2-formamide]
807.78 | [2H]C([2H])([2H])NC(=O)[C@H]1O[C@@H](n2cnc3c(NCc4ccccc4)nc(-c4cncc(Cl)c4)nc32)[C@H](O)[C@@H]1O [compound 15, (2S,3S,4R,5R)-5-(6-(benzylamino)-2-(5-chloropyridin-3-yl)-9H-purin-9-yl)-3,4-dihydroxyl-N-(methyl-d3)-tetrahydrofuran-2-formamide]
1291.00 | [2H]C([2H])([2H])NC(=O)[C@H]1O[C@@H](n2cnc3c(NCc4ccccc4)nc(-c4cncc(C)c4)nc32)[C@H](O)[C@@H]1O [compound 16, (2S,3S,4R,5R)-5-(6-(benzylamino)-2-(5-methylpyridin-3-yl)-9H-purin-9-yl)-3,4-dihydroxyl-N-(methyl-d3)-tetrahydrofuran-2-formamide]
168.00 | [2H]C([2H])([2H])NC(=O)[C@H]1O[C@@H](n2cnc3c(NCc4ccccc4)nc(-c4cnc(C)c(C)c4)nc32)[C@H](O)[C@@H]1O [compound 17, (2S,3S,4R,5R)-5-(6-(benzylamino)-2-(5,6-dimethylpyridin-3-yl)-9/-purin-9-yl)-3,4-dihydroxyl-N-(methyl-d3)-tetrahydrofuran-2-formamide]
74.00 | [2H]C([2H])([2H])NC(=O)[C@H]1O[C@@H](n2cnc3c(NCc4ccccc4)nc(-c4cncc(C#N)c4)nc32)[C@H](O)[C@@H]1O [compound 19, (2S,3S,4R,5R)-5-(6-(benzylamino)-2-(5-cyanopyridin-3-yl)-9H-purin-9-yl)-3,4-dihydroxyl-N-(methyl-d3)-tetrahydrofuran-2-formamide]
1384.00 | [2H]C([2H])([2H])NC(=O)[C@H]1O[C@@H](n2cnc3c(NCc4ccccc4)nc(-c4cncc(F)c4)nc32)[C@H](O)[C@@H]1O [compound 32, (2S,3S,4R,5R)-5-(6-(benzylamino)-2-(5-fluoropyridin-3-yl)-9H-purin-9-yl)-3,4-dihydroxyl-N-(methyl-d3)-tetrahydrofuran-2-formamide]
1578.00 | [2H]C([2H])([2H])NC(=O)[C@H]1O[C@@H](n2cnc3c(NCc4ccccc4)nc(-c4cncc(OC)c4)nc32)[C@H](O)[C@@H]1O [compound 33, (2S,3S,4R,5R)-5-(6-(benzylamino)-2-(5-methoxypyridin-3-yl)-9H-purin-9-yl)-3,4-dihydroxyl-N-(methyl-d3)-tetrahydrofuran-2-formamide]
578.00 | [2H]C([2H])([2H])NC(=O)[C@H]1O[C@@H](n2cnc3c(NCc4ccccc4)nc(-c4cncc(CC)c4)nc32)[C@H](O)[C@@H]1O [compound 34, (2S,3S,4R,5R)-5-(6-(benzylamino)-2-(5-ethylpyridin-3-yl)-9H-purin-9-yl)-3,4-dihydroxyl-N-(methyl-d3)-tetrahydrofuran-2-formamide]
110.00 | CCNC(=O)[C@H]1O[C@@H](n2cnc3c(NC)nc(-c4ccc(OC)nc4)nc32)[C@H](O)[C@@H]1O [compound 58, (2S,3S,4R,5R)-N-ethyl-3,4-dihydroxyl-5-(2-(6-methoxypyridin-3-yl)-6-(methylamino)-9H-purin-9-yl)tetrahydrofuran-2-carboxamide]
360.90 | CNC(=O)[C@H]1O[C@@H](n2cnc3c(NCc4ccccn4)nc(-c4cncc(C)c4)nc32)[C@H](O)[C@@H]1O [compound 69, (2S,3S,4R,5R)-3,4-dihydroxyl-N-methyl-5-(2-(5-methylpyridin-3-yl)-6-((pyridin-2-ylmethyl)amino)-9H-purin-9-yl)tetrahydrofuran-2-carboxamide]
213.00 | CCNC(=O)[C@H]1O[C@@H](n2cnc3c(NC)nc(-c4ccoc4)nc32)[C@H](O)[C@@H]1O [compound 74, (2S,3S,4R,5R)-N-ethyl-5-(2-(furan-3-yl)-6-(methylamino)-9H-purin-9-yl)-3,4-dihydroxyltetrahydrofuran-2-carboxamide]
81.00 | CCNC(=O)[C@H]1O[C@@H](n2cnc3c(NC)nc(-c4ccsc4)nc32)[C@H](O)[C@@H]1O [compound 77, (2S,3S,4R,5R)-N-ethyl-3,4-dihydroxyl-5-(6-(methylamino)-2-(thiophen-3-yl)-9H-purin-9-yl)tetrahydrofuran-2-carboxamide]
115.00 | [2H]C([2H])([2H])NC(=O)[C@H]1O[C@@H](n2cnc3c(NC([2H])([2H])[2H])nc(-c4ccoc4)nc32)[C@H](O)[C@@H]1O [compound 97, (2S,3S,4R,5R)-5-(2-(furan-3-yl)-6-((methyl-d3)amino)-9H-purin-9-yl)-3,4-dihydroxyl-N-(methyl-d)tetrahydrofuran-2-carboxamide]
276.50 | CNC(=O)[C@H]1O[C@@H](n2cnc3c(NCc4ccccc4)nc(-c4cccnc4)nc32)[C@H](O)[C@@H]1O [compound 110, (2S,3S,4R,5R)-5-(6-(benzylamino)-2-(pyridin-3-yl)-9H-purin-9-yl)-3,4-dihydroxyl-N-methyltetrahydrofuran-2-carboxamide]
347.00 | CNC(=O)[C@H]1O[C@@H](n2cnc3c(NCc4ccccc4)nc(-c4cncc(C)c4)nc32)[C@H](O)[C@@H]1O [compound 118, (2S,3S,4R,5R)-5-(6-(benzylamino)-2-(5-methylpyridin-3-yl)-9H-purin-9-yl)-3,4-dihydroxyl-N-methyltetrahydrofuran-2-carboxamide]
86.00 | CNC(=O)[C@H]1O[C@@H](n2cnc3c(NCc4ccccc4)nc(-c4ccc(C)nc4)nc32)[C@H](O)[C@@H]1O [compound 120, (2S,3S,4R,5R)-5-(6-(benzylamino)-2-(6-methylpyridin-3-yl)-9H-purin-9-yl)-3,4-dihydroxyl-N-methyltetrahydrofuran-2-carboxamide]
80.00 | CNC(=O)[C@H]1O[C@@H](n2cnc3c(NCc4ccccc4)nc(-c4ccc(F)c(F)c4)nc32)[C@H](O)[C@@H]1O [compound 143, (2S,3S,4R,5R)-5-(6-(benzylamino)-2-(3,4-difluorophenyl)-9H-purin-9-yl)-3,4-dihydroxyl-N-methyltetrahydrofuran-2-carboxamide]
337.00 | CNC(=O)[C@H]1O[C@@H](n2cnc3c(NCc4ccccc4)nc(-c4ccoc4)nc32)[C@H](O)[C@@H]1O [compound 149, (2S,3S,4R,5R)-5-(6-(benzylamino)-2-(furan-3-yl)-9H-purin-9-yl)-3,4-dihydroxyl-N-methyltetrahydrofuran-2-carboxamide]
1821.60 | CNC(=O)[C@H]1O[C@@H](n2cnc3c(NCc4ccccc4)nc(-c4cncc(Cl)c4)nc32)[C@H](O)[C@@H]1O [compound 150, (2S,3S,4R,5R)-5-(6-(benzylamino)-2-(5-chloropyridin-3-yl)-9H-purin-9-yl)-3,4-dihydroxyl-N-methyltetrahydrofuran-2-carboxamide]
89.00 | CNC(=O)[C@H]1O[C@@H](n2cnc3c(NCc4ccccc4)nc(-c4ccsc4)nc32)[C@H](O)[C@@H]1O [compound 151, (2S,3S,4R,5R)-5-(6-(benzylamino)-2-(thiophen-3-yl)-9H-purin-9-yl)-3,4-dihydroxyl-N-methyltetrahydrofuran-2-carboxamide]
1352.37 | CNC(=O)[C@H]1O[C@@H](n2cnc3c(NCc4ccccc4)nc(-c4cncc([N+](=O)[O-])c4)nc32)[C@H](O)[C@@H]1O [compound 152, (2S,3S,4R,5R)-5-(6-(benzylamino)-2-(5-nitropyridin-3-yl)-9H-purin-9-yl)-3,4-dihydroxyl-N-methyltetrahydrofuran-2-carboxamide]

— patent US12655174B2, “Adenosine A3 receptor agonists, preparation methods and uses thereof” (ZHEJIANG VIMGREEN PHARMACEUTICALS, LTD., priority 2020, dated 2026)
